The results in this text go back to patent US20080051451A1, “Autoimmune conditions and NADPH oxidase defects” (priority 2006, published 2008).

For this experiment, the system named is DA.Ncf1^DA rats. Kind of experiment: Non oil collagen induced arthritis (NOCIA). The class given is in vivo, Rat (Rattus norvegicus). The protocol: Non oil collagen induced arthritis (NOCIA) was induced by emulsifying rat CII (300 μg) in a mixture of LPS (50 μg; Sigma Aldrich), CPG (5′-TCCATGACGTTCCTGACGTT-3′; SEQ ID NO:1) (45 μg; MWG-Biotech AG, Ebersberg, Germany) and alum (6 mg; Sigma Aldrich) and injected s.c. in a total volume of 300 μl.
Preventive effect on arthritis of phytol injection (200 μl s.c.) five days prior to induction of NOCIA in DA.Ncf1^DA rats, (control (Δ) and compound 1 (phytol) (▴)).
Delayed type hypersensitivity (DTH) response is abrogated after compound 1 (phytol) injection (FIG. 8B). Day 67 after NOCIA immunization the immune system was challenged by an injection of CII in the ear. Following increase in ear volume was measured and compared to control ear (control n=7 and compound 1 (phytol) n=8).

Take `C/C(=C\CO)CCCC(C)CCCC(C)CCCC(C)C` (centres unmarked) [compound 1, 3,7,11,15-Tetramethyl-2-hexadecen-1-ol]: the “arthritis severity in NOCIA” value (200 μl s.c. five days prior to induction) was “reduces arthritis severity”. Also, where the note is “CII challenge in the ear day 67 after NOCIA immunization”, the “Delayed type hypersensitivity (DTH) response (increase in ear volume)” value is on record as “abrogated”.
